Publication PMC9784689, “Bioactivity Profiling of In Silico Predicted Linear Toxins from the Ants Myrmica rubra and Myrmica ruginodis” (Toxins, 2022)
Read-outs that look alike come from different tables or passages of the source. No end group written: not given here.

Tests used:
[1] = test system: Escherichia coli, Staphylococcus aureus, Staphylococcus epidermidis, Pseudomonas aeruginosa (strains 50071 and 1117), Micrococcus luteus, Listeria …; experiment: Antibacterial activity, statements for the whole panel of seven strains; type: cell-based; details: 100 µM, after 48 h, MH II medium, 37 °C, OD600, triplicate
[2] = test system: Influenza B/Massachusetts/71 (Yamagata lineage) in MDCK II cells; type: cell-based, influenza B virus; details: B/Mass, 100 µM peptides, 48 h
[3] = test system: Influenza B/Malaysia/2506/04 (Victoria lineage) in MDCK II cells; type: cell-based, influenza B virus; details: B/Mal, 100 µM peptides, 48 h
[4] = test system: Influenza A/Hamburg/5/09 (H1N1) in MDCK II cells; type: cell-based, influenza A virus; details: 100 µM peptides, 48 h
[5] = test system: Influenza A/Hessen/1/03 (H3N2) in MDCK II cells; type: cell-based, influenza A virus; details: 100 µM peptides, 48 h

In the case of “IDSKAIKSLQ-NH2 (C-terminus assumed) [U-MYRTX-Mrub4b/Mrug3a]”, the “Inhibition of bacterial growth, in words” value [1] is reported as “no significant inhibition of bacterial growth”, the “Normalized to Aprotinin =1 (protection)” value ([2]; replicate 1) is reported as 0.03499 and the “Normalized to Aprotinin =1 (protection)” value ([2]; replicate 2) is reported as 0.02676. For the same substance, the “Normalized to Aprotinin =1 (protection)” value ([2]; replicate 3) was 0.02366, the “Normalized to Aprotinin =1 (protection)” value ([3]; replicate 1) was 0.05327 and the “Normalized to Aprotinin =1 (protection)” value ([3]; replicate 2) was 0.08884. The “Normalized to Aprotinin =1 (protection)” value ([3]; replicate 3) was 0.1216, the “Normalized to Aprotinin =1 (protection)” value ([4]; replicate 1) was 0.02574 and the “Normalized to Aprotinin =1 (protection)” value ([4]; replicate 2) was 0.02301. For the same substance, the “Normalized to Aprotinin =1 (protection)” value ([4]; replicate 3) was 0.02813, the “Normalized to Aprotinin =1 (protection)” value ([5]; replicate 1) was 0.06966 and the “Normalized to Aprotinin =1 (protection)” value ([5]; replicate 2) was 0.08008. The “Normalized to Aprotinin =1 (protection)” value ([5]; replicate 3) was 0.07436.
For “KDSDSLKSFQ-NH2 (C-terminus assumed) [U-MYRTX-Mrug6a]”, the “Inhibition of bacterial growth, in words” value [1] was “no significant inhibition of bacterial growth”, the “Normalized to Aprotinin =1 (protection)” value ([2]; replicate 1) was 0.007926 and the “Normalized to Aprotinin =1 (protection)” value ([2]; replicate 2) was 0.0129. For the same substance, the “Normalized to Aprotinin =1 (protection)” value ([2]; replicate 3) was 0.01821, the “Normalized to Aprotinin =1 (protection)” value ([3]; replicate 1) was 0.0613 and the “Normalized to Aprotinin =1 (protection)” value ([3]; replicate 2) was 0.07745. The “Normalized to Aprotinin =1 (protection)” value ([3]; replicate 3) was 0.114, the “Normalized to Aprotinin =1 (protection)” value ([4]; replicate 1) was 0.02785 and the “Normalized to Aprotinin =1 (protection)” value ([4]; replicate 2) was 0.0161. The “Normalized to Aprotinin =1 (protection)” value ([4]; replicate 3) was 0.02305, the “Normalized to Aprotinin =1 (protection)” value ([5]; replicate 1) was 0.08543 and the “Normalized to Aprotinin =1 (protection)” value ([5]; replicate 2) was 0.06156. The “Normalized to Aprotinin =1 (protection)” value ([5]; replicate 3) was 0.07217.
In the case of aprotinin [reference compound], the “Normalized to Aprotinin =1 (protection)” value ([2]; replicate 1) is reported as 1, the “Normalized to Aprotinin =1 (protection)” value ([2]; replicate 2) is reported as 1 and the “Normalized to Aprotinin =1 (protection)” value ([2]; replicate 3) is reported as 1. For the same substance, the “Normalized to Aprotinin =1 (protection)” value ([3]; replicate 1) was 1, the “Normalized to Aprotinin =1 (protection)” value ([3]; replicate 2) was 1 and the “Normalized to Aprotinin =1 (protection)” value ([3]; replicate 3) was 1. The “Normalized to Aprotinin =1 (protection)” value ([4]; replicate 1) was 1, the “Normalized to Aprotinin =1 (protection)” value ([4]; replicate 2) was 1 and the “Normalized to Aprotinin =1 (protection)” value ([4]; replicate 3) was 1. The “Normalized to Aprotinin =1 (protection)” value ([5]; replicate 1) was 1, the “Normalized to Aprotinin =1 (protection)” value ([5]; replicate 2) was 1 and the “Normalized to Aprotinin =1 (protection)” value ([5]; replicate 3) was 1.
With “IDPKVLESLA-NH2 (C-terminus assumed) [U-MYRTX-Mrug2a]” the “Inhibition of bacterial growth, in words” value [1] was “no significant inhibition of bacterial growth”, the “Normalized to Aprotinin =1 (protection)” value ([2]; replicate 1) was 0.01558 and the “Normalized to Aprotinin =1 (protection)” value ([2]; replicate 2) was 0.02606. For the same substance, the “Normalized to Aprotinin =1 (protection)” value ([2]; replicate 3) was 0.02908, the “Normalized to Aprotinin =1 (protection)” value ([3]; replicate 1) was 0.03996 and the “Normalized to Aprotinin =1 (protection)” value ([3]; replicate 2) was 0.0417. For the same substance, the “Normalized to Aprotinin =1 (protection)” value ([3]; replicate 3) was 0.07904, the “Normalized to Aprotinin =1 (protection)” value ([4]; replicate 1) was -0.00333 and the “Normalized to Aprotinin =1 (protection)” value ([4]; replicate 2) was 0.002305. The “Normalized to Aprotinin =1 (protection)” value ([4]; replicate 3) was -0.007789, the “Normalized to Aprotinin =1 (protection)” value ([5]; replicate 1) was 0.06351 and the “Normalized to Aprotinin =1 (protection)” value ([5]; replicate 2) was 0.02791. The “Normalized to Aprotinin =1 (protection)” value ([5]; replicate 3) was 0.04387.
In the case of “IDVYFILHLP-NH2 (C-terminus assumed) [U-MYRTX-Mrug4b]”, the “Normalized to Aprotinin =1 (protection)” value ([2]; replicate 1) is reported as 0.01102, the “Normalized to Aprotinin =1 (protection)” value ([2]; replicate 2) is reported as 0.01257 and the “Normalized to Aprotinin =1 (protection)” value ([2]; replicate 3) is reported as 0.01675. The “Normalized to Aprotinin =1 (protection)” value ([3]; replicate 1) was 0.03762, the “Normalized to Aprotinin =1 (protection)” value ([3]; replicate 2) was 0.02626 and the “Normalized to Aprotinin =1 (protection)” value ([3]; replicate 3) was 0.09882. For the same substance, the “Normalized to Aprotinin =1 (protection)” value ([4]; replicate 1) was -0.007928, the “Normalized to Aprotinin =1 (protection)” value ([4]; replicate 3) was 0.0256 and the “Normalized to Aprotinin =1 (protection)” value ([5]; replicate 1) was 0.06728. For the same substance, the “Normalized to Aprotinin =1 (protection)” value ([5]; replicate 2) was 0.05537 and the “Normalized to Aprotinin =1 (protection)” value ([5]; replicate 3) was 0.07138.
